{
  "source": "patent US10501454B2",
  "about": "“Monocyclic β-lactam-siderophore conjugate, and preparation method and use thereof” (Shanghai Institute of Materia Medica, Chinese Academy of …, priority 2016, dated 2019)",
  "key": {"[1]": {"system": "Escherichia coli ATCC 35218", "assay": "MIC, broth microdilution, normal MH medium", "assay_type": "cell-based", "conditions": "quality control strain", "method": "(§1) Strain for quality control: Escherichia coli ATCC35218, purchased from National Center of Clinical Laboratory.\n(§2) Medium: MH liquid medium (OXOID).\n(§3) Culture condition: cells were incubated at 35-37° C. for 16-18 h.\n(§4) The broth microdilution method recommended by Clinical and Laboratory Standards Institute (CLSI), Performance Standards for Antimicrobial Susceptibility Testing; Twenty-Third Informational Supplement, M02-All, M07-A9 and M11-A8, 2013 was used to determine the MIC value of each test sample against each test strain in the normal MH medium and iron-deficient MH medium.\n(§5) After diluting each sample to different concentrations with normal MH medium, 100 μl of each test sample solution at different concentrations was separately aspirated onto a 96-well sterile polystyrene plate. Drug solutions were added to the 1st to 10th well with the final concentrations of 16, 8, 4, 2, 1, 0.5, 0.25, 0.125, 0.06, and 0.03 mg/L in each well, respectively. The 11th well, as a blank control, was not added with drugs and bacteria. The 12th well, as a bacterial growth control, was added with bacteria but no drug.\n(§6) The test bacterial liquid was adjusted to a bacterial suspension of 0.5 Mcfarland standard with physiological saline, and diluted with MH broth at 1:100, and then added to the drug solution so that a final concentration of the bacterial liquid was approximately 10^4 CFU/ml; 100 μl of the bacterial liquid was further added to each of the above wells (the total volume in each well is 200 μl), which was sealed and placed in a 35-37° C. incubator for 18-20 h for testing the result. The OD600 value was measured by a microplate reader, Minimal Inhibitory Concentration (MIC) of a drug is the lowest concentration of the drug which prevents growth of bacteria in the wells. 1.2.2 MIC in iron-deficient MH medium"}, "[2]": {"system": "Klebsiella pneumoniae (4 strains)", "assay": "MIC, broth microdilution, normal MH medium", "assay_type": "cell-based", "conditions": "multi-drug resistant clinical isolates (KPC2)", "method": "(§7) Supplier of the strains: all of the above strains were provided by Sichuan Primed Shines Bio-tech Co., Ltd. A single colony was isolated by streaking on agar plates for each strain prior to the experiment, and the cells freshly cultured at 37° C. overnight were appropriately diluted for the experiment.\nas §2, §3, §4, §5\nThe OD600 value was measured by a microplate reader, Minimal Inhibitory Concentration (MIC) of a drug is the lowest concentration of the drug which prevents growth of bacteria in the wells. 1.2.2 MIC in iron-deficient MH medium"}, "[3]": {"system": "Escherichia coli ECO-14-4 (ESBLs)", "assay": "In vivo efficacy in mice systemically infected with Escherichia coli ECO-14-4 (ESBLs)", "conditions": "Kunming mice, intraperitoneal infection, drug s.c. 0.5 h and 4 h after infection, deaths over 7 days, Bliss method", "method": "3.1 Test strains: Clinically isolated pathogenic Escherichia coli ECO-14-4 (ESBLs), supplied by Sichuan Primed Shines Bio-tech Co., Ltd.\n3.2 Test animals: Kunming mice, age: 4 to 5 weeks, weight: 18 to 22 g, half male, half female, SPF grade.\n3.3 Test methods: Mice were randomly divided into several groups, 5 mice for each group, half male and half female, and 5 doses for each test drug: 1.25, 2.5, 5, 10 and 20 mg/kg. The mice were intraperitoneally injected with 0.5 mL of […] CFU/mL bacterial suspension for each mouse, and subcutaneously injected with the drug at the designed dose 0.5 h and 4 h after infection. The subcutaneous injection volume was 0.2 ml/20 g mouse weight; the number of deaths in mice was observed and recorded for 7 consecutive days. According to the number of deaths in mice, the half effective dose ED50 was calculated according to the Bliss method using the DAS 1.0 software, edited by Sun Ruiyuan et al."}, "[4]": {"system": "Escherichia coli ATCC 35218", "assay": "MIC, broth microdilution, iron-deficient MH medium", "assay_type": "cell-based", "conditions": "iron-deficient MH medium (16 mg/L 2,2'-bipyridine); quality control strain", "method": "as §1, §2, §3, §4\n(§8) BPL was added to the normal MH medium to obtain a final concentration of 16 mg/L; According to the method in Section 1.2.1, 100 μl of each test sample solution at different concentrations was aspirated to the 1st to 10th well in a 96-well sterile polystyrene plate to obtain the final drug concentrations of 16, 8, 4, 2, 1, 0.5, 0.25, 0.125, 0.06, and 0.03 mg/L, respectively. Then, 100 μl of the test bacterial liquid was added to each well (200 μl per well), and the final concentration of the bacterial liquid was approximately 10^4 CFU/ml. After sealing, it was placed in a 35-37° C. incubator for 18-20 hours for testing the result. The OD600 value was measured by a microplate reader, Minimal Inhibitory Concentration (MIC) of a drug is the lowest concentration of the drug which prevents growth of bacteria in the wells."}, "[5]": {"system": "Klebsiella pneumoniae (4 strains)", "assay": "MIC, broth microdilution, iron-deficient MH medium", "assay_type": "cell-based", "conditions": "iron-deficient MH medium (16 mg/L 2,2'-bipyridine); multi-drug resistant clinical isolates (KPC2)", "method": "as §7, §2, §3, §4, §8"}, "[6]": {"system": "Escherichia coli (4 strains)", "assay": "MIC, broth microdilution, iron-deficient MH medium", "assay_type": "cell-based", "conditions": "iron-deficient MH medium (16 mg/L 2,2'-bipyridine); clinical isolates (ESBLs)", "method": "as §7, §2, §3, §4, §8"}, "[7]": {"system": "Pseudomonas aeruginosa (4 strains)", "assay": "MIC, broth microdilution, iron-deficient MH medium", "assay_type": "cell-based", "conditions": "iron-deficient MH medium (16 mg/L 2,2'-bipyridine); multidrug-resistant clinical isolates (integrator I, IMP4)", "method": "as §7, §2, §3, §4, §8"}, "[8]": {"system": "Acinetobacter baumannii (4 strains)", "assay": "MIC, broth microdilution, iron-deficient MH medium", "assay_type": "cell-based", "conditions": "iron-deficient MH medium (16 mg/L 2,2'-bipyridine); multidrug-resistant clinical isolates (integron I, OXA23)", "method": "as §7, §2, §3, §4, §8"}, "[9]": {"system": "Escherichia coli (4 strains)", "assay": "MIC, broth microdilution, normal MH medium", "assay_type": "cell-based", "conditions": "clinical isolates (ESBLs)", "method": "as §7, §2, §3, §4, §5, §6"}, "[10]": {"system": "Pseudomonas aeruginosa (4 strains)", "assay": "MIC, broth microdilution, normal MH medium", "assay_type": "cell-based", "conditions": "multidrug-resistant clinical isolates (integrator I, IMP4)", "method": "as §7, §2, §3, §4, §5, §6"}, "[11]": {"system": "Acinetobacter baumannii (4 strains)", "assay": "MIC, broth microdilution, normal MH medium", "assay_type": "cell-based", "conditions": "normal MH medium; multidrug-resistant clinical isolates (integron I, OXA23)", "method": "as §7, §2, §3, §4, §5, §6"}},
  "data": [
    {"smiles": "CC1(C)[C@H](NC(=O)/C(=N\\OCc2cc(=O)c(O)cn2O)c2csc(N)n2)C(=O)N1OS(=O)(=O)O", "note": "[BAL30072, reference compound]", "values": [
      {"measurement": "Antibacterial activity MIC, Escherichia coli ATCC 35218", "setting": "[1]", "value": 0.125, "unit": "µg/mL"},
      {"measurement": "Antibacterial activity MIC, Klebsiella pneumoniae (4 strains)", "setting": "[2]", "value": "≥64", "unit": "µg/mL"},
      {"measurement": "ED50 Subcutaneous injection", "setting": "[3]", "value": 4.19, "unit": "mg/kg"},
      {"measurement": "Antibacterial activity MIC, Escherichia coli ATCC 35218", "setting": "[4]", "value": 0.06, "unit": "µg/mL"},
      {"measurement": "Antibacterial activity MIC, Klebsiella pneumoniae (4 strains)", "setting": "[5]", "value": "≥64", "unit": "µg/mL"},
      {"measurement": "Antibacterial activity MIC, Escherichia coli (4 strains)", "setting": "[6]", "value": "0.25 to 1", "unit": "µg/mL"},
      {"measurement": "Antibacterial activity MIC, Pseudomonas aeruginosa (4 strains)", "setting": "[7]", "value": "1 to 2", "unit": "µg/mL"},
      {"measurement": "Antibacterial activity MIC, Acinetobacter baumannii (4 strains)", "setting": "[8]", "value": "1 to 2", "unit": "µg/mL"},
      {"measurement": "Antibacterial activity MIC, Escherichia coli (4 strains)", "setting": "[9]", "value": 1, "unit": "µg/mL"},
      {"measurement": "Antibacterial activity MIC, Pseudomonas aeruginosa (4 strains)", "setting": "[10]", "value": 2, "unit": "µg/mL"},
      {"measurement": "Antibacterial activity MIC, Acinetobacter baumarmii (4 strains)", "setting": "[11]", "value": "2 to 4", "unit": "µg/mL"}
    ]}
  ]
}
